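Where inhibition never reached the appropriate level, the endpoint shown equals the highest concentration tested. Otherwise, values were interpolated linearly from a five-concentration, 48-hour dose response in 96-well plates. At the TGI there is no net growth.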 Where a SMILES comes first, the peptide text is derived from it. The star is where a group is joined. Cbz = O=C(OCc1ccccc1)*
How the values were obtained:
Assay in all cases: NCI tumour cell line growth inhibition, 48 h
[1] = system: SW-620 colon
[2] = system: SK-OV-3 ovarian
[3] = system: CCRF-CEM leukemia
[4] = system: MDA-N
[5] = system: EKVX NSCLC
[6] = system: UACC-257 melanoma
[7] = system: OVCAR-5 ovarian
[8] = system: RPMI-8226 leukemia
[9] = system: OVCAR-4 ovarian
[10] = system: SK-MEL-28 melanoma
[11] = system: SK-MEL-5 melanoma
[12] = system: SF-539 CNS

## CCOC(=O)CCCN
[1]
  TGI: > 100 µM
[2]
  TGI: > 100 µM
[3]
  TGI: > 100 µM
[4]
  TGI: > 100 µM
[5]
  TGI: > 100 µM
[6]
  TGI: > 100 µM
[7]
  TGI: > 100 µM
[8]
  TGI: > 100 µM
[9]
  TGI: > 100 µM
[10]
  TGI: > 100 µM
[11]
  TGI: > 100 µM

## CC(C)(C)c1ccc(O)c(C(O)c2ccccn2)c1 (stereo unspecified)
[1]
  TGI: > 100 µM
[3]
  TGI: > 100 µM
[4]
  TGI: > 100 µM
[5]
  TGI: > 100 µM
[7]
  TGI: 89.6 µM
[12]
  TGI: > 100 µM
[8]
  TGI: > 100 µM
[10]
  TGI: > 100 µM

## CCN1CC2=C(OC(N)=C(C#N)C2c2ccc(Cl)cc2)/C(=C/c2ccc(Cl)cc2)C1 (stereo unspecified)
[1]
  TGI: > 100 µM
[2]
  TGI: 81.5 µM
[3]
  TGI: > 100 µM
[4]
  TGI: > 100 µM
[5]
  TGI: > 100 µM
[6]
  TGI: > 100 µM
[7]
  TGI: > 100 µM
[8]
  TGI: 85.1 µM
[9]
  TGI: > 100 µM
[10]
  TGI: 42.9 µM
[11]
  TGI: > 100 µM

## O=C1c2cccnc2S(=O)(=O)N1c1ccc(Br)cc1
[1]
  TGI: > 100 µM
[2]
  TGI: > 100 µM
[3]
  TGI: > 100 µM
[4]
  TGI: > 100 µM
[5]
  TGI: > 100 µM
[6]
  TGI: > 100 µM
[7]
  TGI: > 100 µM
[8]
  TGI: > 100 µM
[9]
  TGI: > 100 µM
[10]
  TGI: > 100 µM
[11]
  TGI: > 100 µM

## CN(C(=O)Cc1cc(Cl)c(Cl)cc1NC(=O)CCCN)[C@H]1CCCC[C@@H]1N1CCCC1
[1]
  TGI: 91.2 µM
[2]
  TGI: > 100 µM
[4]
  TGI: 30.7 µM
[5]
  TGI: > 100 µM
[6]
  TGI: 33.3 µM
[7]
  TGI: > 100 µM
[8]
  TGI: > 100 µM
[9]
  TGI: > 100 µM
[10]
  TGI: 33 µM
[11]
  TGI: 29.9 µM

## NC(=O)N/N=C(\Cc1cc(=O)oc2cc(O)ccc12)C(=O)Nc1ccccc1C(N)=O
[1]
  TGI: > 100 µM
[2]
  TGI: > 100 µM
[3]
  TGI: > 100 µM
[4]
  TGI: > 100 µM
[5]
  TGI: > 100 µM
[6]
  TGI: > 100 µM
[7]
  TGI: > 100 µM
[12]
  TGI: > 100 µM
[9]
  TGI: > 100 µM
[10]
  TGI: > 100 µM
[11]
  TGI: > 100 µM

## CCN(CC)C1=Nc2ccccc2-n2ccnc2C1
[1]
  TGI: > 100 µM
[3]
  TGI: > 100 µM
[4]
  TGI: > 100 µM
[5]
  TGI: > 100 µM
[6]
  TGI: > 100 µM
[7]
  TGI: > 100 µM
[12]
  TGI: > 100 µM
[9]
  TGI: > 100 µM
[10]
  TGI: > 100 µM
[11]
  TGI: > 100 µM

## CCOC(=O)CCC(NC(=O)C(CC(=O)OC)NC(=O)OCc1ccccc1)C(=O)NC(CC(=O)OC)C(=O)NC(CCC(=O)OCC)C(=O)NC(CC(=O)OC)C(=O)NC(CCC(=O)OCC)C(=O)NC(CC(=O)OCC)C(=O)OCC (stereo unspecified) (Cbz-D(OMe)E(OEt)D(OMe)E(OEt)D(OMe)E(OEt)D(OEt)-OEt; configuration not given here)
[1]
  TGI: > 100 µM
[3]
  TGI: > 100 µM
[4]
  TGI: > 100 µM
[6]
  TGI: > 100 µM
[7]
  TGI: > 100 µM
[8]
  TGI: > 100 µM
[9]
  TGI: > 100 µM
[11]
  TGI: > 100 µM

## Cn1c2ccccc2n2c(=O)c(-c3ccc(Cl)cc3)nnc12
[1]
  TGI: > 100 µM
[3]
  TGI: > 100 µM
[4]
  TGI: > 100 µM
[5]
  TGI: > 100 µM
[6]
  TGI: > 100 µM
[7]
  TGI: > 100 µM
[12]
  TGI: > 100 µM
[9]
  TGI: > 100 µM
[10]
  TGI: > 100 µM
[11]
  TGI: > 100 µM

## Cc1ccc2[nH]c3c(c2c1)C1CCC(C(C)(C)C)CC1C1C(=O)N(c2ccc(Oc4ccccc4)cc2)C(=O)C31 (stereo unspecified)
[1]
  TGI: > 100 µM
[2]
  TGI: 94.7 µM
[3]
  TGI: 8.26 µM
[4]
  TGI: > 100 µM
[5]
  TGI: > 100 µM
[6]
  TGI: > 100 µM
[7]
  TGI: > 81 µM
[8]
  TGI: 40.5 µM
[9]
  TGI: 42.6 µM
[10]
  TGI: > 100 µM
[11]
  TGI: > 100 µM

## CCN(CC)c1c(-c2c(OC(C)C)c(=O)c2=O)c(=O)n2ccsc2c1OC(C)=O
[1]
  TGI: > 100 µM
[2]
  TGI: > 100 µM
[3]
  TGI: > 100 µM
[4]
  TGI: > 100 µM
[5]
  TGI: > 100 µM
[6]
  TGI: > 100 µM
[7]
  TGI: > 100 µM
[8]
  TGI: > 100 µM
[9]
  TGI: > 100 µM
[10]
  TGI: > 100 µM
[11]
  TGI: > 100 µM

## C[C@]12C(=O)OC[C@H](c3ccccc3)N1C(=O)N(Cc1ccccc1)[C@@H]2CO
[1]
  TGI: > 100 µM
[2]
  TGI: > 100 µM
[3]
  TGI: > 100 µM
[4]
  TGI: > 100 µM
[5]
  TGI: > 100 µM
[6]
  TGI: > 100 µM
[7]
  TGI: > 100 µM
[12]
  TGI: > 100 µM
[9]
  TGI: > 100 µM
[10]
  TGI: > 100 µM
[11]
  TGI: > 100 µM

## COP(=O)(OC)[C@@](O)(c1ccccc1)[C@@H](O)[C@H](O)c1ccccc1
[1]
  TGI: > 100 µM
[2]
  TGI: > 100 µM
[3]
  TGI: 41.6 µM
[4]
  TGI: > 100 µM
[5]
  TGI: > 100 µM
[6]
  TGI: > 100 µM
[7]
  TGI: > 100 µM
[12]
  TGI: > 100 µM
[9]
  TGI: > 100 µM
[10]
  TGI: > 100 µM
[11]
  TGI: > 100 µM

## CC1(N2CCOCC2)CC2C(=[N+]1[O-])CCC/C2=N/O (stereo unspecified)
[1]
  TGI: > 100 µM
[2]
  TGI: > 100 µM
[3]
  TGI: > 100 µM
[4]
  TGI: > 100 µM
[5]
  TGI: > 100 µM
[6]
  TGI: > 100 µM
[7]
  TGI: > 100 µM
[12]
  TGI: > 100 µM
[9]
  TGI: > 100 µM
[10]
  TGI: > 100 µM
[11]
  TGI: > 100 µM

## Cc1cc(C)c2c(-c3ccccc3)cc(=O)[nH]c2c1
[1]
  TGI: > 100 µM
[2]
  TGI: > 100 µM
[3]
  TGI: > 100 µM
[4]
  TGI: > 100 µM
[5]
  TGI: > 100 µM
[6]
  TGI: > 100 µM
[7]
  TGI: > 100 µM
[8]
  TGI: > 100 µM
[9]
  TGI: > 100 µM
[10]
  TGI: > 100 µM
[11]
  TGI: > 100 µM

## OC1C2CN3CCN(C2)CC1(c1ccccc1)C3 (stereo unspecified)
[1]
  TGI: > 100 µM
[4]
  TGI: > 100 µM
[5]
  TGI: > 100 µM
[6]
  TGI: > 100 µM
[7]
  TGI: > 100 µM
[12]
  TGI: > 100 µM
[8]
  TGI: > 100 µM
[9]
  TGI: > 100 µM
[10]
  TGI: > 100 µM
[11]
  TGI: > 100 µM
